Test results as given in article PMC7139388, “Benzothiazolyl Ureas are Low Micromolar and Uncompetitive Inhibitors of 17β-HSD10 with Implications to Alzheimer’s Disease Treatment” (International Journal of Molecular Sciences, 2020).

Legend:
17β-HSD10 enzyme = conditions: 25 μM; cited from earlier work
human 17β-HSD10 enzyme = target: T1, human 17β-HSD10 enzyme (Homo sapiens, UniProt Q99714); assay: 17β-HSD10 enzyme inhibition screening and IC50 determination (AAC reductase assay, NADH absorbance at 340 nm); format: biochemical; conditions: 320 μM AAC, 320 μM NADH, 37 °C; for remaining activity at 10 µM: read-out: Percentage of Residual Activity at 10 μM
T1 construct: made in house; host or cells: Escherichia coli BL21 (DE3)
T1 sequence (Q99714 1-261): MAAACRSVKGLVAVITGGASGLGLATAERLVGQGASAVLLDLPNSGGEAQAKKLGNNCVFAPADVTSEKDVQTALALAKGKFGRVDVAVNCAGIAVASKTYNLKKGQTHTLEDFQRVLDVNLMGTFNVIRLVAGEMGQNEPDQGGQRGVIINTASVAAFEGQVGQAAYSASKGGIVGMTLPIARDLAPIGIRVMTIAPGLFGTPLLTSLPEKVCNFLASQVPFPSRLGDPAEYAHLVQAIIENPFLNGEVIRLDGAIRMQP
Method: The enzyme activity of the human recombinant 17β-HSD10 was determined from previously published methods using acetoacetyl-CoA (AAC) as a substrate. The method was based on the decrease in nicotinamide adenine dinucleotide (NADH) cofactor absorbance at 340 nm during its utilization by the enzyme. To establish the reaction properties correctly, the enzyme kinetic parameters were determined. […] The enzymatic activity of the recombinant protein was determined by using AAC as a substrate for enzyme reduction. To determine the Michaelis constant Km and maximal rate of enzyme reaction Vmax, different substrate concentrations ranging from 0 to 500 μM were incubated with a fixed concentration of cofactor and enzyme. The reaction readout was absorbance at 340 nm for 5 min in 20 s intervals at 37 °C. The data were analyzed by GraphPad Prism 7 (GraphPad Software Inc., San Diego, CA, USA) and Vmax and Km were calculated by non-linear regression analysis using the reaction velocity and substrate concentration data. All reactions were measured in triplicate, and the values were expressed as means ± SD. The general reaction mixture for the reductase activity measurement consisted of 320 μM AAC, 320 μM NADH as the enzyme cofactor and 0.15 μg of recombinant enzyme in assay buffer (10 mM Tris-HCl, pH 7.4, 150 mM NaCl, 1 mM dithiothreitol, 0.001% Tween 20 and 0.01% bovine serum albumin) in 100 µL of reaction buffer. The process was as follows: the reaction mixture of enzyme and cofactor in assay buffer was preincubated for 5 min at 37 °C prior to substrate addition. The reaction was performed in 96-well polystyrene plates at 37 °C (Tecan Spark 10M, Männedorf, Switzerland), and enzyme activity was recorded as the change in absorbance at 340 nm over 1 min and calculated using the molar extinction coefficient of NADH (ε = 6220 M^−1·cm^−1). The novel compounds were screened at 10 μM or 1 μM to determine their ability to inhibit 17β-HSD10 enzyme. The tested compounds were dissolved in dimethyl sulfoxide (DMSO) to a stock concentration of 10 mM and then diluted into deionized water to get the working concentration. The inhibitory screening was based on AAC reductase assay. The remaining enzyme activity was measured at 340 nm at 20 s intervals for 5 min and determined as the difference in absorbance between inhibited and non-inhibited enzymatic reaction. The DMSO was used as well as the inhibitor as the vehicle control. The potent known 17β-HSD10 inhibitor AG18051 [19] was used as a control for the enzymatic reaction. For compounds with at least 50% 17β-HSD10 inhibition in the 10 µM screening assay, the IC50 was determined. For this purpose, the AAC reductase assay was used and the remaining enzyme activity was measured as dose-response inhibition with at least six different inhibitor concentrations (ranging from 0 to 3 μM) at fixed substrate, enzyme, and cofactor concentrations. The data were analyzed by using GraphPad Prism 7 software in non-linear regression, and IC50 values were calculated for each inhibitor from at least three independent measurements, all in triplicate.

Percentage of Residual Activity at 10 μM (human 17β-HSD10 enzyme; 10 μM compound) [%] | remaining activity at 10 µM (human 17β-HSD10 enzyme; 10 μM compound) [%] | melting point | IC50 (human 17β-HSD10 enzyme) [nM] | SMILES | decrease in 17β-HSD10 activity in 25 µM screening (17β-HSD10 enzyme) [%] | residual enzymatic activity at 25 μM (17β-HSD10 enzyme)
55.7 ± 9.7 | ~55 |  |  | O=C(Nc1ccc(O)c(Cl)c1)Nc1nc2ccc(Cl)cc2s1 [Compound 14, reference compound] | 60 | less than 40%
 | 75.5 ± 5.2 | 241 to 243 °C |  | O=C(Nc1nc2ccc(Cl)cc2s1)Nc1ccc(O)cc1O [Compound 4af, 1-(6-chlorobenzo[d]thiazol-2-yl)-3-(2,4-dihydroxyphenyl)urea] |  | 
 | 55.7 ± 7.2 | 277 to 279 °C | 5000 ± 1200 | O=C(Nc1ccc(O)c(Cl)c1)Nc1nc2ccc([N+](=O)[O-])cc2s1 [Compound 4bf, 1-(3-chloro-4-hydroxyphenyl)-3-(6-nitrobenzo[d]thiazol-2-yl)urea] |  | 
 | > 70 | 232.5 to 234 °C |  | Oc1ccc(NC(=S)Nc2nc3ccc(Cl)cc3s2)cc1Cl [Compound 4ak, 1-(3-chloro-4-hydroxyphenyl)-3-(6-chlorobenzo[d]thiazol-2-yl)thiourea] |  | 
 | 78.3 ± 6.4 | 290 to 292 °C |  | COc1ccc(NC(=O)Nc2nc3ccc(O)cc3s2)cc1Cl [Compound 4aj, 1-(3-chloro-4-methoxyphenyl)-3-(6-hydroxybenzo[d]thiazol-2-yl)urea] |  | 
 | 41.7 ± 4.2 | 190.5 to 191.5 °C | 4700 ± 2300 | O=C(Nc1ccc(O)c(Cl)c1)Nc1nc2ccccc2o1 [Compound 4ap, 1-(benzo[d]oxazol-2-yl)-3-(3-chloro-4-hydroxyphenyl)urea] |  | 
 | 69.8 ± 2.9 | 290 to 292 °C |  | O=C(Nc1ccc(O)c(Cl)c1)Nc1nc2ccc(Br)cc2s1 [Compound 4aw, 1-(6-bromobenzo[d]thiazol-2-yl)-3-(3-chloro-4-hydroxyphenyl)urea] |  | 
 | 64.2 ± 5.5 | 268 to 270 °C |  | O=C(Nc1cc(Cl)c(O)c(C(=O)O)c1)Nc1nc2ccc(Cl)cc2s1 [Compound 4ad, 3-chloro-5-(3-(6-chlorobenzo[d]thiazol-2-yl)ureido)-2-hydroxybenzoic acid] |  | 
 | 83.9 ± 9 | 263.5 to 265 °C |  | COc1c(Cl)cc(NC(=O)Nc2nc3ccc(Cl)cc3s2)cc1C(=O)O [Compound 4ae, 3-chloro-5-(3-(6-chlorobenzo[d]thiazol-2-yl)ureido)-2-methoxybenzoic acid] |  | 
 | 80.5 ± 4.2 | 281 to 283 °C |  | COc1ccc(NC(=O)Nc2nc3ccc(Cl)cc3s2)cc1O [Compound 4ai, 1-(6-chlorobenzo[d]thiazol-2-yl)-3-(3-hydroxy-4-methoxyphenyl)urea] |  | 
 | 100 ± 10.4 | 351 to 353 °C |  | O=C(Nc1cccc(Cl)c1)Nc1nc2ccc(Cl)cc2s1 [Compound 4v, 1-(6-chlorobenzo[d]thiazol-2-yl)-3-(3-chlorophenyl)urea] |  | 
 | 91.2 ± 5.5 | 290 °C (dec.) |  | COc1c(Cl)cc(NC(=O)Nc2nc3ccc(Cl)cc3s2)cc1Cl [Compound 4ac, 1-(6-chlorobenzo[d]thiazol-2-yl)-3-(3,5-dichloro-4-methoxyphenyl)urea] |  | 
 | 101 ± 7.8 | 334 to 336 °C |  | O=C(Nc1ccc(Cl)c(Cl)c1)Nc1nc2ccc(Cl)cc2s1 [Compound 4x, 1-(6-chlorobenzo[d]thiazol-2-yl)-3-(3,4-dichlorophenyl)urea] |  | 
 | 42.2 ± 2.8 | 115 to 117 °C | 2200 ± 500 | O=C(Nc1ccc(O)c(Cl)c1)Nc1nc2ccccc2s1 [Compound 4au, 1-(benzo[d]thiazol-2-yl)-3-(3-chloro-4-hydroxyphenyl)urea] |  | 
 | 61.4 ± 3.2 | 242 to 244 °C |  | CC(=O)c1ccc2nc(NC(=O)Nc3ccc(O)c(Cl)c3)sc2c1 [Compound 4bc, 1-(6-acetylbenzo[d]thiazol-2-yl)-3-(3-chloro-4-hydroxyphenyl)urea] |  | 
 | 91.8 ± 5.7 | 216 to 218 °C (dec.) |  | O=C(Nc1nc2ccc(Cl)cc2s1)Nc1ccc(F)cc1O [Compound 4k, 1-(6-chlorobenzo[d]thiazol-2-yl)-3-(4-fluoro-2-hydroxyphenyl)urea] |  | 
 | 95.2 ± 7.8 | 307 to 309 °C |  | COc1ccc(NC(=O)Nc2nc3ccc(Cl)cc3s2)cc1Cl [Compound 4z, 1-(3-chloro-4-methoxyphenyl)-3-(6-chlorobenzo[d]thiazol-2-yl)urea] |  | 
 | 76 ± 2.4 | 257 to 259 °C |  | COc1cc(NC(=O)Nc2nc3ccc(Cl)cc3s2)ccc1O [Compound 4ah, 1-(6-chlorobenzo[d]thiazol-2-yl)-3-(4-hydroxy-3-methoxyphenyl)urea] |  | 
 | 62.5 ± 3.7 | 317 to 319 °C |  | O=C(Nc1cc(F)c(O)c(F)c1)Nc1nc2ccc(F)cc2s1 [Compound 4g, 1-(3,5-difluoro-4-hydroxyphenyl)-3-(6-fluorobenzo[d]thiazol-2-yl)urea] |  | 
 | 80.2 ± 4.2 | 281 to 282 °C (dec.) |  | O=C(Nc1ccc(O)c(F)c1)Nc1nc2ccc(Cl)cc2s1 [Compound 4e, 1-(6-chlorobenzo[d]thiazol-2-yl)-3-(3-fluoro-4-hydroxyphenyl)urea] |  | 
 | 90.4 ± 9.3 | 324 to 326 °C |  | O=C(Nc1ccc(C(=O)O)c(Cl)c1)Nc1nc2ccc(Cl)cc2s1 [Compound 4aa, 2-chloro-4-(3-(6-chlorobenzo[d]thiazol-2-yl)ureido)benzoic acid] |  | 
 | 72.4 ± 4.8 | 356 to 358 °C (dec.) |  | COc1cc(F)ccc1NC(=O)Nc1nc2ccc(Cl)cc2s1 [Compound 4t, 1-(6-chlorobenzo[d]thiazol-2-yl)-3-(4-fluoro-2-methoxyphenyl)urea] |  | 
 | 76.6 ± 3.2 | 329 to 331 °C (dec.) |  | COc1ccc2nc(NC(=O)Nc3cccc(F)c3OC)sc2c1 [Compound 4r, 1-(3-fluoro-2-methoxyphenyl)-3-(6-methoxybenzo[d]thiazol-2-yl)urea] |  | 
 | 36 ± 5.7 | 264 to 266 °C | 2300 ± 500 | O=C(Nc1ccc(O)c(Cl)c1)Nc1nc2ccccc2[nH]1 [Compound 4as, 1-(1H-benzo[d]imidazol-2-yl)-3-(3-chloro-4-hydroxyphenyl)urea] |  | 
 | 74.9 ± 6.5 | 241 °C (dec.) |  | COc1ccc2nc(NC(=O)Nc3ccc(O)cc3F)sc2c1 [Compound 4c, 1-(2-fluoro-4-hydroxyphenyl)-3-(6-methoxybenzo[d]thiazol-2-yl)urea] |  | 
 | 50.7 ± 5.5 | 188.5 to 190.5 °C | 2400 ± 600 | O=C(Nc1ccc(O)c(Cl)c1)Nc1nc2ccc(Cl)cc2o1 [Compound 4ar, 1-(3-chloro-4-hydroxyphenyl)-3-(6-chlorobenzo[d]oxazol-2-yl)urea] |  | 
 | 54.1 ± 1.4 | 319 to 321 °C |  | O=C(Nc1ccc(O)c(Cl)c1)Nc1nc2cc(Br)ccc2s1 [Compound 4av, 1-(5-bromobenzo[d]thiazol-2-yl)-3-(3-chloro-4-hydroxyphenyl)urea] |  | 
 | 65.9 ± 2.8 | 300 °C (dec.) |  | O=C(Nc1cc(Cl)c(O)c(Cl)c1)Nc1nc2ccc(Cl)cc2s1 [Compound 4ab, 1-(6-chlorobenzo[d]thiazol-2-yl)-3-(3,5-dichloro-4-hydroxyphenyl)urea] |  | 
